Assay results from a melting point compilation (Tetko et al.; mined from patent text by program, amines drawn as free bases though some values may be those of a salt).

Row | Compound | melting point
1 | CC(C)c1ccc(C=O)c(=O)c(O)c1 | 76 °C
2 | CCOc1cc(OCc2cccc(OCc3nc(-c4ccccc4)oc3C)c2)ccc1CCC(=O)O | 122 to 123 °C
3 | CC(C)(C)OC(=O)N1CCC[C@@H]1C=C(Br)Br | 55 to 60 °C
4 | CC(C)(C)N(NC(=O)c1ccccc1)C(=O)c1ccncc1 | > 210 °C
5 | O=C(O)CNC(=O)c1cccc2c(-c3ccccc3)c([N+](=O)[O-])oc12 | 123 to 126 °C
6 | Cc1c(NC(=O)c2ccc(OC[C@@H]3CCCO3)cc2)ccc2c1cc(CNCC(C)C)n2C | 162 °C
7 | CC(C)(C)c1ccc(CSc2ccc3c(c2)OCC(=O)N3)cc1 | 134 to 136 °C
8 | CC(=O)NC(C)Cc1ccc(OC(C)=O)cc1 (stereo not drawn) | 97.5 to 99 °C
9 | CC(C)N(C(N)=O)C(Oc1ccccc1)C(C)(O)Cl (stereo not drawn) | 154 °C
10 | CSc1ccc2sc3cc(F)ccc3c(=O)c2c1 | 135 to 138 °C
11 | CS(=O)c1nccc(-c2nc(=O)c3ccccc3s2)n1 (stereo not drawn) | 250 to 252 °C
12 | N#Cc1nn(-c2c(Cl)cc(C(F)(F)F)cc2Cl)c(N)c1C1CC1(Br)Br (stereo not drawn) | 178 to 179 °C
13 | Cc1nccn1-c1ccc(N2C[C@H](CNc3ccon3)OC2=O)cc1F | 106 to 107 °C
14 | O=c1c2ccc(Cl)cc2[nH]c2c(O)nn(C3CCOc4ccccc43)c(=O)c12 (racemic) | > 300 °C
15 | Cn1nc(-c2cnc(N)nc2-c2ccccc2Br)ccc1=O | > 250 °C
16 | C=CCOc1ccccc1-c1nc2nc(SC)ncc2c(=O)[nH]1 | 205 to 206 °C
17 | CC(C)n1nc(-c2c(NC3CC3)nc(N)nc2-c2ccccc2)ccc1=O | 237 to 239 °C

Row | Compound | melting point
18 | Nc1ccc(C2CCN(c3ccncc3)CC2)cc1 | 196 to 197 °C
19 | O=C1CCCN1c1cccc(Cc2n[nH]c(=O)c3ccccc23)c1 | 206 to 207 °C
20 | COc1ccc2c(C)c(CCCl)c(=O)oc2c1OC | 137 to 139 °C
21 | CC(C)(Cn1cnc2c(N)nc3ccccc3c21)C(N)=O | 287 to 289 °C
22 | COC(=O)C(=C/c1cc(OC)c(OC)c(OC)c1)/C(=C\c1ccccc1)C(N)=O | 144 to 146 °C
23 | O=C(O)Cc1cccc(Cn2cc(C3c4ccccc4C=Cc4ccccc43)c(=S)[nH]c2=O)c1 | 135 to 137 °C
24 | O=C(c1ccccc1F)C1CCN(C(=O)Oc2ccccc2)CC1 | 95 to 96 °C
25 | COc1ccc(-c2ccc3cc(CO)ccc3c2)cc1C12CC3CC(CC(C3)C1)C2 | 169 to 171 °C
26 | CS(=O)(=O)c1ccc(Cl)c(-c2n[nH]c3nc(Oc4ccc(F)cc4F)ncc23)c1 | 252 °C
27 | CCOC(=O)c1nc(NC)sc1-c1cn2ccccc2n1 | 197 to 200 °C
28 | O=C1CCN(Cc2ccccc2)C(=O)C1=C1SCCS1 | 148 to 150 °C
29 | Cc1ccc2oc(=O)c(C(=O)Oc3cc(F)ccc3[N+](=O)[O-])cc2c1 | 224 to 226 °C
30 | NC(=O)c1ccccc1N1CCN(CC[C@H]2OCCc3ccccc32)CC1 | 157 to 158 °C
31 | COc1cc(NC(N)=S)c(Cl)c(OC)c1 | 159 to 162 °C
32 | CC(C)c1ccc(N)nn1 | 131 to 132 °C
33 | Cc1ccc(S(=O)(=O)NC2CCCCNC2=O)cc1 (stereo not drawn) | 180 °C

Now from value to molecule:

Row | melting point | Compound
34 | 120 to 122 °C | CC(C)(C)OC(=O)N1CCN(C(=O)Cn2sc3ccccc3c2=O)CC1
35 | 105 to 106 °C | Cc1cc(Br)cnc1CCCNc1ncc(Cc2cccnc2)cc1[N+](=O)[O-]
36 | 220 to 221 °C | O=c1[nH]c2ccc(Br)cc2c(=O)n1CCCS
37 | 178 to 179 °C | COc1ccc(C(=O)N2c3ccccc3C(n3c4ccccc4c4ccccc43)CC2CCCCCN2CCN(c3ccc(F)cc3)CC2)cc1OC (stereo not drawn)
38 | 211 to 212 °C | Cc1nnc(-c2ccc3ncn(-c4ccc(OC(F)(F)F)c(Cl)c4)c3c2)o1
39 | 158 to 159 °C | Cc1c(Cc2cccc(C(F)(F)F)c2)oc2c(-c3cccc(C(=O)NCCC#N)c3)cccc12
40 | 193 to 194 °C | CC(=O)OCCn1cnc2c(Cl)nc(Nc3ccccc3)nc21
41 | 152 to 155 °C | Cc1c(NC(=O)NCCO)c(C)c2c(c1-c1ccccc1)OCC2c1ccc(C(C)C)cc1 (stereo not drawn)
42 | 235 to 236 °C | C[C@@H](n1cnc2cc(C(N)=O)ccc2c1=O)[C@](O)(Cn1cncn1)c1ccc(F)cc1F
43 | 67 to 69 °C | CC(Oc1cccc(Cl)c1)C(=O)NCCO[N+](=O)[O-] (stereo not drawn)
44 | 115 to 117 °C | CCc1nn(CCNC(=O)c2ccccc2)c(CC)c1Cc1cc(Cl)cc(Cl)c1
45 | 123 to 124 °C | O=P(O)(O)CCCCC(F)(F)C(F)(F)C(F)(F)C(F)(F)F
46 | 134 to 135 °C | COc1cc(C(=O)CCC(=O)c2cc(OC)c(OC)c(OC)c2)cc(I)c1OCc1ccccc1
47 | 145 to 146 °C | NS(=O)(=O)c1ccccc1OC(F)(F)C(F)(F)F
48 | 50 to 57 °C | COC(=O)Cc1ccc(CNC(=O)C2Cc3ccccc3N2S(=O)(=O)c2ccc(-c3cccc(C(F)(F)F)c3)cc2)c(F)c1 (stereo not drawn)
